Laboratory results published in PubChem BioAssay (NCI).
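Assay format: 96-well plates, 48-hour exposure. GI50 = concentration required for 50% inhibition of growth. TGI: total growth inhibition.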

How the values were obtained:
Assay in all cases: DTP human tumour cell line panel, 48 h
[1] = tested on: SNB-19 CNS
[2] = tested on: NCI-H522 lung
[3] = tested on: SK-MEL-28 melanoma
[4] = tested on: MOLT-4 leukemia
[5] = tested on: TK-10 renal
[6] = tested on: ACHN renal
[7] = tested on: SK-OV-3 ovarian
[8] = tested on: T-47D breast
[9] = tested on: SNB-75 CNS
[10] = tested on: CCRF-CEM leukemia
[11] = tested on: SK-MEL-5 melanoma
[12] = tested on: PC-3 prostate
[13] = tested on: A549 NSCLC
[14] = tested on: U251 CNS
[15] = tested on: SF-539 CNS
[16] = tested on: MCF7 breast
[17] = tested on: BT-549 breast
[18] = tested on: HOP-92 NSCLC
[19] = tested on: KM12 colon
[20] = tested on: DU-145 prostate
[21] = tested on: OVCAR-5 ovarian
[22] = tested on: HT29 colon
[23] = tested on: UACC-257 melanoma
[24] = tested on: K-562 leukemia
[25] = tested on: SK-MEL-2 melanoma
[26] = tested on: NCI-H23 lung
[27] = tested on: HS 578T breast
[28] = tested on: RPMI-8226 leukemia
[29] = tested on: CAKI-1 renal
[30] = tested on: HCC-2998 colon
[31] = tested on: SN12C renal
[32] = tested on: NCI-H226 lung
[33] = tested on: HOP-62 NSCLC
[34] = tested on: SW-620 colon
[35] = tested on: MALME-3M melanoma
[36] = tested on: OVCAR-4 ovarian
[37] = tested on: COLO 205 colon
[38] = tested on: RXF 393 renal
[39] = tested on: HCT-15 colon
[40] = tested on: M14 melanoma
[41] = tested on: A498 renal
[42] = tested on: LOX IMVI melanoma
[43] = tested on: EKVX NSCLC
[44] = tested on: NCI-H460 lung
[45] = tested on: 786-0 renal
[46] = tested on: OVCAR-8 ovarian
[47] = tested on: IGROV1 ovarian
[48] = tested on: SF-268 CNS
[49] = tested on: UO-31 renal
[50] = tested on: NCI/ADR-RES ovarian
[51] = tested on: HCT-116 colon
[52] = tested on: UACC-62 melanoma
[53] = tested on: HL-60(TB) leukemia
[54] = tested on: SR leukemia
[55] = tested on: MDA-MB-231 breast
[56] = tested on: MDA-MB-435
[57] = tested on: MDA-MB-468 breast
[58] = tested on: SF-295 CNS
[59] = tested on: OVCAR-3 ovarian

`Cc1ccc(NC(=O)N/N=C/c2c[nH]c3ccccc23)c(C)c1` showed a GI50 [1] of 0.554 µM, a TGI [1] of 27.2 µM and a GI50 [2] of 0.0379 µM. The TGI [2] was 0.327 µM, the GI50 [3] was 1.45 µM and the TGI [3] was > 79.3 µM. For the same molecule, the GI50 [4] was 0.269 µM, the TGI [4] was > 32.8 µM and the GI50 [5] was 2.59 µM. The TGI [5] was 39.6 µM, the GI50 [6] was 0.637 µM and the TGI [6] was > 57.6 µM. For the same molecule, the GI50 [7] was 0.391 µM, the TGI [7] was 25.3 µM and the GI50 [8] was 0.363 µM. It also gave a TGI [8] of 78 µM, a GI50 [9] of 0.343 µM and a TGI [9] of 5.6 µM. The GI50 [10] was 0.308 µM, the TGI [10] was > 40 µM and the GI50 [11] was 0.226 µM. For the same molecule, the TGI [11] was 8.13 µM, the GI50 [12] was 0.517 µM and the TGI [12] was > 100 µM. For the same molecule, the GI50 [13] was 0.588 µM, the TGI [13] was 45.9 µM and the GI50 [14] was 0.316 µM. The TGI [14] was 12.8 µM, the GI50 [15] was 0.217 µM and the TGI [15] was 0.7 µM. For the same molecule, the GI50 [16] was 0.235 µM, the TGI [16] was 27.9 µM and the GI50 [17] was 0.596 µM. For the same molecule, the TGI [17] was 23.9 µM, the GI50 [18] was 1.6 µM and the TGI [18] was 19 µM. For the same molecule, the GI50 [19] was 0.205 µM, the TGI [19] was 10.1 µM and the GI50 [20] was 0.432 µM. It also gave a TGI [20] of 19.4 µM, a GI50 [21] of 0.565 µM and a TGI [21] of 15.5 µM. The GI50 [22] was 0.164 µM, the TGI [22] was 1.04 µM and the GI50 [23] was 0.573 µM. For the same molecule, the TGI [23] was 47.5 µM, the GI50 [24] was 0.0418 µM and the TGI [24] was > 100 µM. The GI50 [25] was 0.258 µM, the TGI [25] was 0.627 µM and the GI50 [26] was 0.418 µM. For the same molecule, the TGI [26] was 12.2 µM, the GI50 [27] was 0.281 µM and the TGI [27] was 23.1 µM. It also gave a GI50 [28] of 0.373 µM, a TGI [28] of 25.6 µM and a GI50 [29] of 0.261 µM. The TGI [29] was > 44 µM, the GI50 [30] was 0.492 µM and the TGI [30] was 4.53 µM. The GI50 [31] was 0.419 µM, the TGI [31] was 8.97 µM and the GI50 [32] was 2.5 µM. The TGI [32] was > 100 µM, the GI50 [33] was 0.343 µM and the TGI [33] was 26.2 µM. The GI50 [34] was 0.203 µM, the TGI [34] was > 100 µM and the GI50 [35] was 0.241 µM. The TGI [35] was 19.1 µM, the GI50 [36] was 5.49 µM and the TGI [36] was > 100 µM. It also gave a GI50 [37] of 0.361 µM, a TGI [37] of 1.59 µM and a GI50 [38] of 0.267 µM. For the same molecule, the TGI [38] was 6.23 µM, the GI50 [39] was 0.0785 µM and the TGI [39] was > 34.9 µM. The GI50 [40] was 0.175 µM, the TGI [40] was 12.8 µM and the GI50 [41] was 12.7 µM. For the same molecule, the TGI [41] was 38.4 µM, the GI50 [42] was 0.365 µM and the TGI [42] was 8.33 µM. For the same molecule, the GI50 [43] was 0.469 µM, the TGI [43] was > 100 µM and the GI50 [44] was 0.357 µM. It also gave a TGI [44] of 15.7 µM, a GI50 [45] of 0.481 µM and a TGI [45] of 13.9 µM. It also gave a GI50 [46] of 0.378 µM, a TGI [46] of 3.11 µM and a GI50 [47] of 0.378 µM. It also gave a TGI [47] of 20.1 µM, a GI50 [48] of 0.828 µM and a TGI [48] of 23.4 µM. For the same molecule, the GI50 [49] was 0.458 µM, the TGI [49] was > 67 µM and the GI50 [50] was 0.0689 µM. It also gave a TGI [50] of 0.631 µM, a GI50 [51] of 0.245 µM and a TGI [51] of 4.79 µM. For the same molecule, the GI50 [52] was 0.151 µM, the TGI [52] was 5.27 µM and the GI50 [53] was 0.0997 µM. For the same molecule, the TGI [53] was 2.73 µM, the GI50 [54] was 0.0336 µM and the TGI [54] was > 21.9 µM. It also gave a GI50 [55] of 0.495 µM, a TGI [55] of 5.41 µM and a GI50 [56] of 0.0281 µM. It also gave a TGI [56] of 0.11 µM, a GI50 [57] of 0.178 µM and a TGI [57] of 0.543 µM. For the same molecule, the GI50 [58] was 0.239 µM, the TGI [58] was 12 µM and the GI50 [59] was 0.138 µM. It also gave a TGI [59] of 1.8 µM.
In the case of `Cc1ccccc1[C@H]1C(C(=O)c2ccc(Cl)cc2)C2(N[C@@H]1c1ccccc1)C(=O)Nc1ccc(Br)cc12` (some centres undefined), the GI50 [1] was 6.08 µM, the TGI [1] was 12.1 µM and the GI50 [2] was 5.86 µM. It also gave a TGI [2] of 11.5 µM, a GI50 [3] of 5.78 µM and a TGI [3] of 10.7 µM. It also gave a GI50 [4] of 6.48 µM, a TGI [4] of 23.3 µM and a GI50 [5] of 5.54 µM. For the same molecule, the TGI [5] was 10.9 µM, the GI50 [6] was 5.76 µM and the TGI [6] was 10.7 µM. The GI50 [7] was 6.75 µM, the TGI [7] was 15.9 µM and the GI50 [8] was 4.09 µM. The TGI [8] was 9.42 µM, the GI50 [9] was 2.7 µM and the TGI [9] was 9.33 µM. It also gave a GI50 [10] of 7.4 µM, a TGI [10] of 22.4 µM and a GI50 [11] of 5.83 µM. It also gave a TGI [11] of 10.8 µM, a GI50 [12] of 4.09 µM and a TGI [12] of 9.8 µM. The GI50 [13] was 5.44 µM, the TGI [13] was 11.8 µM and the GI50 [14] was 5.6 µM. For the same molecule, the TGI [14] was 12.1 µM, the GI50 [15] was 5.99 µM and the TGI [15] was 11.2 µM. It also gave a GI50 [16] of 4.33 µM, a TGI [16] of 10.2 µM and a GI50 [17] of 5.56 µM. For the same molecule, the TGI [17] was 10.6 µM, the GI50 [18] was 2.99 µM and the TGI [18] was 7.93 µM. The GI50 [19] was 5.63 µM, the TGI [19] was 11.6 µM and the GI50 [20] was 5.46 µM. The TGI [20] was 10.6 µM, the GI50 [21] was 4.89 µM and the TGI [21] was 9.61 µM. For the same molecule, the GI50 [22] was 5.52 µM, the TGI [22] was 13.2 µM and the GI50 [23] was 5.77 µM. For the same molecule, the TGI [23] was 11.5 µM, the GI50 [24] was 8.79 µM and the TGI [24] was 36.5 µM. For the same molecule, the GI50 [25] was 5.32 µM, the TGI [25] was 10.7 µM and the GI50 [26] was 5.39 µM. For the same molecule, the TGI [26] was 10.9 µM, the GI50 [27] was 5.62 µM and the TGI [27] was 18.5 µM. It also gave a GI50 [28] of 7.29 µM, a TGI [28] of 23.4 µM and a GI50 [29] of 4.11 µM. For the same molecule, the TGI [29] was 8.63 µM, the GI50 [30] was 5.87 µM and the TGI [30] was 10.9 µM. The GI50 [31] was 4.8 µM, the TGI [31] was 9.56 µM and the GI50 [32] was 5.39 µM. It also gave a TGI [32] of 10.6 µM, a GI50 [33] of 5.91 µM and a TGI [33] of 11.6 µM. It also gave a GI50 [34] of 5.9 µM, a TGI [34] of 11.7 µM and a GI50 [35] of 5.35 µM. The TGI [35] was 10.3 µM, the GI50 [36] was 4.72 µM and the TGI [36] was 10.5 µM. For the same molecule, the GI50 [37] was 5.7 µM, the TGI [37] was 11.1 µM and the GI50 [38] was 3.67 µM. The TGI [38] was 8.34 µM, the GI50 [39] was 5.39 µM and the TGI [39] was 10.7 µM. The GI50 [40] was 5.9 µM, the TGI [40] was 11.1 µM and the GI50 [41] was 6.11 µM. The TGI [41] was 11.7 µM, the GI50 [42] was 5.22 µM and the TGI [42] was 9.99 µM. The GI50 [43] was 4.33 µM, the TGI [43] was 9.25 µM and the GI50 [44] was 6.07 µM. It also gave a TGI [44] of 12.7 µM, a GI50 [45] of 5.9 µM and a TGI [45] of 10.9 µM. It also gave a GI50 [46] of 6.35 µM, a TGI [46] of 15 µM and a GI50 [47] of 4.85 µM. It also gave a TGI [47] of 10.4 µM, a GI50 [48] of 4.74 µM and a TGI [48] of 10.2 µM. It also gave a GI50 [49] of 4.41 µM, a TGI [49] of 8.94 µM and a GI50 [50] of 5.54 µM. The TGI [50] was 12.1 µM, the GI50 [51] was 5.26 µM and the TGI [51] was 10.2 µM. It also gave a GI50 [52] of 4.69 µM, a TGI [52] of 9.48 µM and a GI50 [53] of 9.02 µM. The TGI [53] was 28.7 µM, the GI50 [55] was 5.34 µM and the TGI [55] was 10.2 µM. For the same molecule, the GI50 [56] was 5.61 µM, the TGI [56] was 10.6 µM and the GI50 [57] was 5.24 µM. The TGI [57] was 10.1 µM, the GI50 [58] was 4.77 µM and the TGI [58] was 9.52 µM. The GI50 [59] was 3.77 µM and the TGI [59] was 8.32 µM.
